Results as given in PMC9609767, “Radiosynthesis and Preclinical Evaluation of an ^18F-Labeled Triazolopyridopyrazine-Based Inhibitor for Neuroimaging of the Phosphodiesterase 2A (PDE2A)” (Pharmaceuticals, 2022).

Columns and labels:
[1] = In vivo metabolism in SPRD rats (radio-HPLC of plasma and brain); settings: rat, 30 min p.i., i.v.
Procedure: Metabolism in rats has been investigated in the animals applied in PET studies (protocol reported below). In brief, blood was taken from two anesthetized female SPRD rats 30 min after intravenous injection of [^18F]11 followed by decapitation and isolation of the brains. The blood samples and the brains were processed as described above.
Protein precipitation was performed by the addition of ice-cold ACN/H2O (9:1, v/v) in a ratio of 4:1 (v/v) of organic solvent to plasma or brain homogenate, respectively. The samples were vortexed for 3 min, equilibrated on ice for 3 min, and centrifuged for 10 min at 10,000 rpm and the supernatant collected. The precipitates were washed with 100 μL of the solvent mixture and subjected to the same procedure. The combined supernatants were concentrated at 70 °C under argon flow to a final volume of approximately 100 μL and analysed by analytical radio-HPLC with a gradient system (see radiochemistry general section). The peak corresponding to the radiotracer in the radio-chromatogram was identified by co-injecting the sample with the reference compound 11. To determine the percentage of activity in the supernatants compared to total activity, aliquots of each step as well as the precipitates were quantified by an automated gamma counter (1480 WIZARD, Perkin Elmer, Turku, Finland). […]

[2] = In vivo metabolism in CD-1 mice (radio-HPLC of plasma and brain); settings: mouse
Procedure: Two non-anesthetized female CD-1 mice (30 and 33 g, 90 days) were injected intravenously with [^18F]11 (28 MBq = 94 nmol/kg and 25 MBq = 78 nmol/kg). The animals were anesthetized by isoflurane inhalation at 28 min p.i. and blood was collected from the retro-orbital plexus, followed by cervical dislocation at 30 min p.i. Immediately afterwards, the brains were isolated, washed twice with isotonic saline and stored on ice. Plasma was obtained from the whole blood sample by centrifugation (8.000 rpm, 2 min, ambient temperature). All samples were weighed and the radioactivity was measured in a dose calibrator (ISOMED 2010 Dose Calibrator, NUVIA Instruments GmbH, Dresden, Germany). Afterwards, the brains were homogenized in 1 mL demineralized water on ice (Potter S, B. Braun Biotech, Melsungen, Germany).
Protein precipitation was performed by the addition of ice-cold ACN/H2O (9:1, v/v) in a ratio of 4:1 (v/v) of organic solvent to plasma or brain homogenate, respectively. The samples were vortexed for 3 min, equilibrated on ice for 3 min, and centrifuged for 10 min at 10,000 rpm and the supernatant collected. The precipitates were washed with 100 μL of the solvent mixture and subjected to the same procedure. The combined supernatants were concentrated at 70 °C under argon flow to a final volume of approximately 100 μL and analysed by analytical radio-HPLC with a gradient system (see radiochemistry general section). The peak corresponding to the radiotracer in the radio-chromatogram was identified by co-injecting the sample with the reference compound 11. To determine the percentage of activity in the supernatants compared to total activity, aliquots of each step as well as the precipitates were quantified by an automated gamma counter (1480 WIZARD, Perkin Elmer, Turku, Finland). For plasma and brain samples recoveries of ≥91% of total activity were obtained.

[3] = Dynamic PET/MR study in SPRD rat; assay type: in vivo
Procedure: For the time of the experiments, one female CD-1 mouse (10 weeks; 30.5 g) and one female SPRD rat (9 weeks; 256 g) were kept in a dedicated climatic chamber with free access to water and food under a 12:12 h dark:light cycle at a constant temperature (24 °C). The animals were anesthetized (Anaesthesia Unit U-410, agntho’s, Lidingö, Sweden) with isoflurane (2.0%, 300 mL/min) delivered in a 60% oxygen/40% air mixture (Gas Blender 100 Series, MCQ instruments, Rome, Italy) and their body temperature maintained at 37 °C with a thermal bed system for the duration of the PET studies. A dynamic PET scan (PET/MR 1T, Mediso nanoScan®, Hungary) started 20 s before intravenous injection into the tail vein of [^18F]11 and was performed in mouse for 60 min (4.9 MBq in 150 μL isotonic saline; 20.5 nmol/kg; Am: 8.9 GBq/μmol, EOS) in rat for 30 min (29.7 MBq in 400 μL isotonic saline; 12 nmol/kg; Am: 11 GBq/μmol, EOS). Each PET image was corrected for random coincidences, dead time, scatter and attenuation (AC), based on a whole body (WB) MR scan. The reconstruction parameters for the list mode data were 3D-ordered subset expectation maximization (OSEM), 4 iterations, 6 subsets, energy window: 400–600 keV, coincidence mode: 1–5, ring difference: 81. Preceding the PET scan a T1 weighted WB gradient echo sequence (TR/TE: 20/6.4 ms, NEX: 1, FA: 25, FOV: 64 × 64 mm, Matrix: 128 × 128, STh: 0.5 mm) was performed for AC and anatomical orientation. PET Images were analyzed with PMOD (PMOD Technologies LLC, v. 4.1, Zurich, Switzerland). The respective brain regions were identified using the mouse brain atlas template Ma-Benveniste-Mirrione-T2 or the rat brain atlas template Schwarz-T2. The regional activity data (radioactivity concentration, kBq/mL) were normalized to the injected dose (MBq) and corrected for the animal weight (g) to provide standardized uptake values (SUV, g/mL). Finally, the results of the PETscans are expressed as mean SUV of the respective region of interest ROI.

[4] = logD by shake flask method (n-octanol/PBS); assay type: physicochemical; settings: n-octanol/phosphate-buffered saline, n = 4
Procedure: In order to estimate the lipophilicity of [^18F]11, the partition coefficient was determined by the shake flask method using n-octanol and phosphate-buffered saline as partition system. […] The chemical stability of the radiotracer was investigated by incubation in phosphate-buffered saline (PBS) and n-octanol at 30 °C.
The determination of stability and logD value has been performed according to the procedures described by Sadeghzadeh and Wenzel et al..

[5] = 30 min p.i., i.v., n = 2 (individual values)

CCCC(O)c1ccc([18F])c(-c2nnc3c(C)nc4ccc(C5CC5)nc4n23)c1 (stereo not drawn) [[^18F]11]
fraction of non-metabolized radiotracer in brain [1]: 66%
fraction of non-metabolized radiotracer in plasma [1]: about 50%
fraction of non-metabolized radiotracer in brain [2, 5]: 42/50
fraction of non-metabolized radiotracer in plasma [2, 5]: about 7/11
radiometabolites in the brain (% of the activity) ([2]; 30 min post injection): ~ 50%
SUV caudate putamen ([3]; 15 min p.i.): 0.51 SUV
SUV cerebellum ([3]; 15 min p.i.): 0.40 SUV
peak value of brain uptake (SUV) ([3]; whole brain, at 0.6 min): 0.97 SUV
logD [4]: 1.79 ± 0.66
